Experimental data from patent US9790158B2, “Substituted tropolone derivatives and methods of use” (University of Connecticut, priority 2012, dated 2017).
pIC50, pKi: −log10 of the molar value.

What was measured:
human recombinant HDAC8 = human recombinant HDAC8 (Homo sapiens (Human), UniProt Q9BY41); experiment: fluorogenic HDAC inhibition assay, HDAC8; format: biochemical; settings: IC50 converted to Ki with KM (Cheng and Prusoff); read-out: Ki HDAC-8
Protocol: Key enzyme kinetic parameters for one class I HDAC (HDAC8) and one class Ha HDAC (HDAC4) were determined using commercially available human recombinant HDAC enzymes (BPS Bioscience, San Diego, Calif.) and fluorogenic HDAC assay kits (BPS Bioscience). Kinetic parameters were determined by performing HDAC activity assays at varied concentrations of the HDAC substrate according to the manufacturer's protocol. Assay data were analyzed via non-linear regression (GraphPad Software, Inc., CA). Inhibition assays were used to determine the half maximal inhibitory concentration, IC50, for tropolone analogs in HDAC8 and […]. The potent hydroxamic acid HDAC inhibitor, Trichostatin A (TSA), provided in the assay kit, served as a control for the assays. IC50 values for the tropolone analogs were converted to inhibition constants, Ki, for each of the inhibitors using the KM value in accordance with the techniques previously described by Cheng and Prusoff.

human recombinant HDAC4 = human recombinant HDAC4 (Homo sapiens, UniProt P56524); experiment: fluorogenic HDAC inhibition assay, HDAC4; format: biochemical; settings: IC50 converted to Ki with KM (Cheng and Prusoff); read-out: Ki HDAC-4
Sequence of human recombinant HDAC4 (P56524 whole entry, looked up): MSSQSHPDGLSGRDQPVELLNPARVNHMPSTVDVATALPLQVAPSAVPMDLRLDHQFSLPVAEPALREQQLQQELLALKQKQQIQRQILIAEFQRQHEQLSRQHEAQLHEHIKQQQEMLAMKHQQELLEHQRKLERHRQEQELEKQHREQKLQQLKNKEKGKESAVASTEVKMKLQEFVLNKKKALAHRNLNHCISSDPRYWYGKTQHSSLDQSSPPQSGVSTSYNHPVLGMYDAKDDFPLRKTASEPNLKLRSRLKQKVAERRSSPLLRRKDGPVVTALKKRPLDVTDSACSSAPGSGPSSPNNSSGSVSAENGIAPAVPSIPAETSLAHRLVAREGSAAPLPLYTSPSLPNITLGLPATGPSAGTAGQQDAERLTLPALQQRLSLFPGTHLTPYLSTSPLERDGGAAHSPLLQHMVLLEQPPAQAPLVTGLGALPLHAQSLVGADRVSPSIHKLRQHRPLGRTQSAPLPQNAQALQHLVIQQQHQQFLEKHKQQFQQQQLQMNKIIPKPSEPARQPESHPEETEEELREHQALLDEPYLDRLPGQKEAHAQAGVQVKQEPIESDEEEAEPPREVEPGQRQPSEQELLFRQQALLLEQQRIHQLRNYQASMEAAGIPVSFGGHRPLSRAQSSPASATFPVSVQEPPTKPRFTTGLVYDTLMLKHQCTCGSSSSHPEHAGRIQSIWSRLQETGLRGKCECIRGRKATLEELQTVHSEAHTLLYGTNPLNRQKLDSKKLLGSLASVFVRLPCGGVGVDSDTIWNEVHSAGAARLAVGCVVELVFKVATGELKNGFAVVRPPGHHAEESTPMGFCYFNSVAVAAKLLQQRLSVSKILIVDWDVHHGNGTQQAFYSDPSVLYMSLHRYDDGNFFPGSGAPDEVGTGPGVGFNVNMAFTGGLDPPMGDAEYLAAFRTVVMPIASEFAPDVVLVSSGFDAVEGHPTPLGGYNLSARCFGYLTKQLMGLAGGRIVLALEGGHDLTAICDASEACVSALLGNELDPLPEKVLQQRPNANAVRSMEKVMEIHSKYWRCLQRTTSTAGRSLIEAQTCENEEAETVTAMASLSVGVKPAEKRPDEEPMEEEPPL

Jurkat cells = experiment: cell-based cytotoxicity assay (Cell Titer 96 Aqueous One), Jurkat; settings: 72-h exposure, absorbance at 490 nm
Protocol: (§1) All cell lines were purchased from ATCC (Manassas, Va.). Jurkat cells were cultured in RPMI 1640 (ATCC) supplemented with 10% fetal bovine serum (FBS; Atlanta Biologicals, Lawrenceville, Ga.). HuT-78 cells were cultured in IMDM (ATCC) supplemented with 20% FBS (Atlanta Biologicals). HT-29 and HCT116 were cultured in McCoy's media (Life Technologies, Carlsbad Calif.) supplemented with 10% FBS (Atlanta Biologicals), 1% non-essential amino acids (Mediatech Inc., Manassas, Va.) and 1% penicillin/streptomycin (Mediatech Inc).
(§2) Confluent Jurkat and HuT-78 cells were seeded in triplicate at a density of 5×10^4 cells/well whereas HT-29 and HCT116 cells were seeded in triplicate at a density of 5×10^3 cells/well in 96-well plates. Cells were treated at varying concentrations (1 μM-100 μM) of either a tropolone analog or SAHA. DMSO served as a vehicle control. After a 72-h exposure, cytotoxicity was evaluated using the Cell Titer 96 Aqueous One kit (Promega, Madison, Wis.) according to the instructions of the manufacturer. Formazan content was determined by measuring the absorbance at 490 nm on an Infinite M200 microplate reader (Tecan Group Ltd., Switzerland) and analyzed via non-linear regression analysis (GraphPad Software, Inc.).

HuT-78 cells = experiment: cell-based cytotoxicity assay (Cell Titer 96 Aqueous One), HuT-78; settings: 72-h exposure, absorbance at 490 nm
Protocol: as §1, §2

Sequence of human recombinant HDAC8 (Q9BY41 whole entry): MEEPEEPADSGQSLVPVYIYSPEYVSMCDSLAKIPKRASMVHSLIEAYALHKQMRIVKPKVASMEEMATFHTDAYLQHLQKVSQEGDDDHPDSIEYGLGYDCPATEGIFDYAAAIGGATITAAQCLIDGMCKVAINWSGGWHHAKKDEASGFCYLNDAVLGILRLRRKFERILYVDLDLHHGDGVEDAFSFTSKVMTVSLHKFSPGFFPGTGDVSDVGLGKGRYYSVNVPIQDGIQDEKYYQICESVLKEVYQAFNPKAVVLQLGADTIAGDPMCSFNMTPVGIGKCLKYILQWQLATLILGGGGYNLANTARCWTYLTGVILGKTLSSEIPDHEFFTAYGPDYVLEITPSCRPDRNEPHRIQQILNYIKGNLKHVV

Structure (SMILES)	pKi (human recombinant HDAC8)	pKi (human recombinant HDAC4)	pIC50 (Jurkat cells; Homo sapiens, Jurkat)	pIC50 (HuT-78 cells; Homo sapiens, HuT78)	pIC50 (Jurkat cells)	pIC50 (HuT-78 cells)
O=c1c(O)ccccc1-c1ccccc1 [Example 1]	9.77	10.10	5.48	5.11	–	–
O=c1c(O)ccccc1-c1ccc2ccccc2c1 [Example 2]	8.12	9.27	–	–	–	–
COc1ccc(-c2ccccc(O)c2=O)cc1 [Example 3]	9.85	8.56	6.21	5.54	–	–
COc1ccc(OC)c(-c2ccccc(O)c2=O)c1 [Example 4]	9.36	6.74	6.12	5.52	–	–
COc1ccc(-c2ccccc(O)c2=O)c(OC)c1OC [Example 5]	10.40	7.23	5.73	5.32	–	–
O=c1cccc(-c2ccccc2)cc1O [Example 6]	7.71	7.14	–	–	6.17	5.38
COc1cccc(-c2cccc(O)c(=O)c2)c1 [Example 7]	8.87	8.77	–	–	5.34	5.05
COc1ccc(OC)c(-c2cccc(O)c(=O)c2)c1 [Example 8]	8.85	6.27	–	–	5.23	4.77
CC(C)c1cccc(O)c(=O)c1 [Example 9]	6.98	8.48	–	–	5.96	5.30
CC(C)(C)c1cccc(O)c(=O)c1 [Example 10]	8.57	6.31	–	–	5.35	4.88
CCC(C)c1cccc(O)c(=O)c1 (stereo not shown) [Example 11]	7.99	7.02	–	–	6.23	5.49
O=c1cc(C2CCCC2)cccc1O [Example 12]	7.63	8.18	–	–	5.20	4.94
